Test results: ChEMBL document CHEMBL1127835, “Structure-activity relationships of N6-benzyladenosine-5'-uronamides as A3-selective adenosine agonists” (J Med Chem, 1994)

How the values were obtained:
Adenosine A2 receptor = Adenosine A2 receptor (Rattus norvegicus, UniProt P29276+P30543)
Description: Binding affinity for A2-adenosine receptor by the displacement of specific [3H]-CGS- binding in rat striatal membranes was determined

[1] = Ratio of binding affinities for A2 receptor compared to that of A3 receptor
Adenosine receptor A3 [2] = target: T1, Adenosine receptor A3 (Rattus norvegicus, UniProt P28647)
T1 sequence (P28647 whole entry): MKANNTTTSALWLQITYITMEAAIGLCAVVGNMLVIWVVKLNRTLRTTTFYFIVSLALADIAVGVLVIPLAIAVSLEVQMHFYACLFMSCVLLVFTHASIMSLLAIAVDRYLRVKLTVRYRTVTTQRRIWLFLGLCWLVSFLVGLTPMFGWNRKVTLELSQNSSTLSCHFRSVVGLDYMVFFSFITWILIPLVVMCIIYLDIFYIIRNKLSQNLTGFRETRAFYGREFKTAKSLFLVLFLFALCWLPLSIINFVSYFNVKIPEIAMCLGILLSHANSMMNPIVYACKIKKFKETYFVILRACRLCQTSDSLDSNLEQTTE
Description: Binding affinity for recombinant rat A3-adenosine receptor by the displacement of specific [125I]APNEA or [125I]-N6-(4-amino-3-iodobenzyl)-adenosine-5'-N-methyluronamide

Adenosine receptor A1 = target: T2, Adenosine receptor A1 (Rattus norvegicus, UniProt P25099); assay: biochemical
T2 sequence (P25099 whole entry): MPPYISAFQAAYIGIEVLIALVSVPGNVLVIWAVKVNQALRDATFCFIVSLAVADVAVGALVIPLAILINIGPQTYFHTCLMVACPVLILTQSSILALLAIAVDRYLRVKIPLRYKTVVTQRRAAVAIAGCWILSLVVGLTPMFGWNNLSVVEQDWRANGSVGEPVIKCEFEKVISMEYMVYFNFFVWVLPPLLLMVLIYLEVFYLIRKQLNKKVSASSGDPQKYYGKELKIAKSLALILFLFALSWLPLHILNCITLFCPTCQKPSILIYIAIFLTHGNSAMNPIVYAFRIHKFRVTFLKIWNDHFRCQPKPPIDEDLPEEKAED
Description: Binding affinity for A1-adenosine receptor by the displacement of specific [3H]-PIA binding in rat brain was determined

Adenosine receptor A3 [3] = target: T1, Adenosine receptor A3; assay: biochemical
Description: Binding affinity for rat A3-adenosine receptor expressed in chinese hamster ovarian cells (assayed by the displacement of specific [125I]-N6-(4-amino-3-iodobenzyl)-adenosine-5''-N-methyluronamide)

[4] = target: T3, Adenosine receptor A1 (Rattus norvegicus) (UniProt P25099); assay: Percentage inhibition against [3H]PIA binding to A1-adenosine receptor in rat brain at 1xe-4 nM; assay type: tissue-based
T3 sequence (whole entry): T2 sequence (P25099 whole entry)

[5] = target: T4, Adenosine A2 receptor (Rattus norvegicus) (UniProt P29276+P30543); assay: Percentage inhibition against [3H]-CGS- 21680 binding to A2-adenosine receptor in rat brain at 1xe-4 nM; assay type: tissue-based
[6] = target: T4, Adenosine A2 receptor (Rattus norvegicus); conditions: Brain, 10e-5 nM
Description: Percentage inhibition against [3H]-CGS- 21680 binding to A1-adenosine receptor in rat brain at 10e-5 nM

[7] = target: T3, Adenosine receptor A1 (Rattus norvegicus); conditions: Brain, 10e-5 nM
[8] = target: T4, Adenosine A2 receptor (Rattus norvegicus); assay: Percentage inhibition of [3H]-CGS- 21680 binding to […] receptor in rat brain at 10e-4 nM; assay type: tissue-based
[9] = target: T3, Adenosine receptor A1 (Rattus norvegicus); assay: Percentage inhibition against [3H]-PIA binding to A1-adenosine receptor in rat brain at 10e-4 nM; assay type: tissue-based
[10] = target: T3, Adenosine receptor A1 (Rattus norvegicus); assay: Percentage inhibition against [3H]PIA binding to A1-adenosine receptor in rat brain at 10e-5 nM; assay type: tissue-based
[11] = target: T4, Adenosine A2 receptor (Rattus norvegicus); assay: Percentage inhibition of [3H]-CGS- 21680 binding to […] receptor in rat brain at 10e-5 nM; assay type: tissue-based

| Ki (Adenosine A2 receptor) [nM] | Ratio [1] | Ki (Adenosine receptor A1) [nM] | Compound | further results |
| --- | --- | --- | --- | --- |
| 559 | 25 | 916 | CNC(=O)[C@H]1O[C@@H](n2cnc3c(NCc4cccc(Cl)c4)ncnc32)[C@H](O)[C@@H]1O | Ki (Adenosine receptor A3 [2]): 21.9 nM |
| 32 | 3 | – | CCNC(=O)[C@H]1O[C@@H](n2cnc3c(NCc4cccc(F)c4)ncnc32)[C@H](O)[C@@H]1O | – |
| 1650 | 3.3 | 65 | CCNC(=O)[C@H]1OC(n2cnc3c(N[C@@H](C)c4ccccc4)ncnc32)[C@H](O)[C@@H]1O (stereo partly specified) | Ki (Adenosine receptor A3 [3]): 494 nM |
| 101 | 0.22 | 154 | CCNC(=O)[C@H]1OC(n2cnc3c(N)[n+]([O-])cnc32)[C@H](O)[C@@H]1O (stereo partly specified) | Ki (Adenosine receptor A3 [2]): 468 nM |
| 64 | 34 | – | CNC(=O)[C@H]1O[C@@H](n2cnc3c(NCc4cccc(Br)c4)ncnc32)[C@H](O)[C@@H]1O | Ki (Adenosine receptor A3 [3]): 1.9 nM |
| 2730 | 160 | 478 | CNC(=O)[C@H]1OC(n2cnc3c(NCc4ccc(Cl)cc4)ncnc32)[C@H](O)[C@@H]1O (stereo partly specified) | Ki (Adenosine receptor A3 [3]): 17 nM |
| 1590 | 110 | – | CNC(=O)[C@H]1OC(n2cnc3c(NCc4ccc(N)cc4)ncnc32)[C@H](O)[C@@H]1O (stereo partly specified) | – |
| 83.5 | 3.1 | 196 | CCNC(=O)[C@H]1O[C@@H](n2cnc3c(N)[n+](Cc4ccccc4[N+](=O)[O-])cnc32)[C@H](O)[C@@H]1[O-] | Ki (Adenosine receptor A3 [2]): 27 nM |
| 7.2 | 8.2 | – | CCNC(=O)[C@H]1O[C@@H](n2cnc3c(NCc4cccc(I)c4)ncnc32)[C@H](O)[C@@H]1O | – |
| 988 | 24 | 2970 | CNC(=O)[C@H]1OC(n2cnc3c(NCc4cccc(NC(C)=O)c4)ncnc32)[C@H](O)[C@@H]1O (stereo partly specified) | Ki (Adenosine receptor A3 [3]): 41.4 nM |
| 55 | 0.53 | 112 | O=C(NC1CC1)[C@H]1OC(n2cnc3c(NCc4ccccc4)ncnc32)[C@H](O)[C@@H]1O (stereo partly specified) | Ki (Adenosine receptor A3 [2]): 103 nM |
| – | > 100 | – | CNC(=O)[C@H]1OC(n2cnc3c(NCc4ccc(S(=O)(=O)O)cc4)ncnc32)[C@H](O)[C@@H]1O (stereo partly specified) | inhibition [4]: 0%; inhibition [5]: 0%; Ki (Adenosine receptor A3 [3]): 4500 nM |
| 597 | 37 | – | CNC(=O)[C@H]1O[C@@H](n2cnc3c(NCc4ccccc4)ncnc32)[C@H](O)[C@@H]1O | – |
| 794 | 28 | 1000 | CNC(=O)[C@H]1OC(n2cnc3c(NCc4cccc(N)c4)ncnc32)[C@H](O)[C@@H]1O (stereo partly specified) | Ki (Adenosine receptor A3 [3]): 28 nM |
| 415 | 42 | – | CNC(=O)[C@H]1O[C@@H](n2cnc3c(NCc4cccc(C)c4)ncnc32)[C@H](O)[C@@H]1O | – |
| – | > 1 | – | NCCNC(=O)[C@H]1O[C@@H](n2cnc3c(N)ncnc32)[C@H](O)[C@@H]1O | inhibition [6]: 12.5%; inhibition [7]: 0% |
| 259 | 14 | – | CCNC(=O)[C@H]1O[C@@H](n2cnc3c(N[C@H](C)c4ccccc4)ncnc32)[C@H](O)[C@@H]1O | – |
| 423 | 1.7 | – | NC(=O)[C@H]1O[C@@H](n2cnc3c(NCc4ccccc4)ncnc32)[C@H](O)[C@@H]1O | – |
| 24 | 8.6 | – | CCNC(=O)[C@H]1O[C@@H](n2cnc3c(NCc4ccccc4[N+](=O)[O-])ncnc32)[C@H](O)[C@@H]1O | – |

| Ki (Adenosine A2 receptor) [nM] | Ratio [1] | Ki (Adenosine receptor A1) [nM] | Compound | further results |
| --- | --- | --- | --- | --- |
| – | – | – | CCNC(=O)[C@H]1OC(n2cnc3c(=O)[nH]cnc32)[C@H](O)[C@@H]1O (stereo partly specified) | Ki (Adenosine receptor A3 [2]): 5000 nM |
| 21 | 3 | – | CCNC(=O)[C@H]1O[C@@H](n2cnc3c(NCc4ccccc4OC)ncnc32)[C@H](O)[C@@H]1O | – |
| 441 | 23 | 735 | CNC(=O)[C@H]1OC(n2cnc3c(NCc4cccc([N+](=O)[O-])c4)ncnc32)[C@H](O)[C@@H]1O (stereo partly specified) | Ki (Adenosine receptor A3 [3]): 19 nM |
| 17.7 | 15 | – | CCNC(=O)[C@H]1O[C@@H](n2cnc3c(NCc4cccc(C)c4)ncnc32)[C@H](O)[C@@H]1O | – |
| – | > 1 | – | CCNC(=O)[C@H]1OC(n2cnc3c(O)ncnc32)[C@H](O)[C@@H]1O (stereo partly specified) | inhibition [8]: 31%; inhibition [9]: 44% |
| – | > 1 | – | CC(C)(C)OC(=O)NCCNC(=O)[C@H]1O[C@@H](n2cnc3c(N)ncnc32)[C@H](O)[C@@H]1O | inhibition [10]: 0%; inhibition [11]: 0% |
| – | > 10 | – | CNC(=O)[C@H]1O[C@@H](n2cnc3c(O)ncnc32)[C@H](O)[C@@H]1O | inhibition [8]: 6.2%; inhibition [9]: 0% |
| 120 | 0.085 | 72.6 | NC(=O)[C@H]1OC(n2cnc3c(N)ncnc32)[C@H](O)[C@@H]1O (stereo partly specified) | Ki (Adenosine receptor A3 [2]): 1410 nM |
| – | – | 10.9 | CCNC(=O)[C@H]1OC(n2cnc3c(NCc4cccc(Br)c4)ncnc32)[C@H](O)[C@@H]1O (stereo partly specified) | Ki (Adenosine receptor A3 [3]): 2.8 nM |
| 609 | 55 | – | CCNC(=O)[C@H]1O[C@@H](n2cnc3c(NCc4ccc(OC)cc4)ncnc32)[C@H](O)[C@@H]1O | – |
| 95 | 14 | – | CCNC(=O)[C@H]1O[C@@H](n2cnc3c(NCc4ccccc4)ncnc32)[C@H](O)[C@@H]1O | – |
| 38 | 8.8 | – | CCNC(=O)[C@H]1O[C@@H](n2cnc3c(NCc4cccc(OC)c4)ncnc32)[C@H](O)[C@@H]1O | – |
| 19 | 17 | – | CCNC(=O)[C@H]1O[C@@H](n2cnc3c(NCc4cccc(Cl)c4)ncnc32)[C@H](O)[C@@H]1O | – |
| 574 | 19 | 496 | CNC(=O)[C@H]1OC(n2cnc3c(NCc4cccc(C(F)(F)F)c4)ncnc32)[C@H](O)[C@@H]1O (stereo partly specified) | Ki (Adenosine receptor A3 [3]): 31 nM |
| 9070 | 6.9 | 19600 | CNC(=O)[C@H]1OC(n2cnc3c(NCc4cccc(S(=O)(=O)O)c4)ncnc32)[C@H](O)[C@@H]1O (stereo partly specified) | Ki (Adenosine receptor A3 [3]): 1310 nM |
| 35 | 4 | – | CCNC(=O)[C@H]1O[C@@H](n2cnc3c(NCc4cccc([N+](=O)[O-])c4)ncnc32)[C@H](O)[C@@H]1O | – |
| 190 | 3.2 | 341 | CCNC(=O)[C@H]1O[C@@H](n2cnc3c(N)[n+](Cc4ccc([N+](=O)[O-])cc4)cnc32)[C@H]([O-])[C@@H]1O | Ki (Adenosine receptor A3 [2]): 60 nM |
| – | 64 | – | CCNC(=O)[C@H]1O[C@@H](n2cnc3c(NCc4ccc([N+](=O)[O-])cc4)ncnc32)[C@H](O)[C@@H]1O | – |
| 2460 | 200 | 516 | CNC(=O)[C@H]1OC(n2cnc3c(NCc4ccc(Br)cc4)ncnc32)[C@H](O)[C@@H]1O (stereo partly specified) | Ki (Adenosine receptor A3 [3]): 12 nM |

| Compound | Ki (Adenosine A2 receptor) [nM] | Ratio [1] | Ki (Adenosine receptor A1) [nM] | further results |
| --- | --- | --- | --- | --- |
| CNC(=O)[C@H]1O[C@@H](n2cnc3c(NCc4ccc(N)c(I)c4)ncnc32)[C@H](O)[C@@H]1O | 197 | – | 18 | – |
